From ChEMBL document CHEMBL5154871, “Non-peptidyl non-covalent cathepsin C inhibitoEEr bearing a unique thiophene-substituted pyridine: Design, structure-activity relationship and anti-inflammatory activity in vivo” (Eur J Med Chem, 2022)

Columns and labels:
[1] = molecular target: T1, Dipeptidyl peptidase 1 (Homo sapiens, UniProt P53634); assay: Inhibition of human recombinant Cathepsin C using H-Gly-Arg-AMC as substrate pretreated for 30 mins followed by substrate addition and incubated for 60 mins by microplate reader assay
[2] = molecular target: T1, Dipeptidyl peptidase 1; assay: Inhibition of Cathepsin C in human THP-1 cells using H-Gly-Phe-AFC as substrate pretreated for 1 hr followed by substrate addition and incubated for 60 mins by microplate reader assay; assay type: cell-based
[3] = molecular target: T1, Dipeptidyl peptidase 1; assay: Inhibition of Cathepsin C in human U-937 cells using H-Gly-Phe-AFC as substrate pretreated for 1 hr followed by substrate addition and incubated for 60 mins by microplate reader assay; assay type: cell-based
[4] = molecular target: Cathepsin B (Homo sapiens, UniProt P07858); assay: Inhibition of human recombinant Cathepsin B using Z-Leu-Arg-AMC as substrate pretreated for 60 mins followed by substrate addition and incubated for 30 mins by microplate reader assay

T1 sequence (P53634 25-134 limits assumed): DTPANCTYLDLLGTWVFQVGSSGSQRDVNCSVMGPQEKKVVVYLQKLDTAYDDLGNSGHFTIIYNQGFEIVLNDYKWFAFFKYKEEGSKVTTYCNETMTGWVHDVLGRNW
T1 sequence (P53634 231-394 limits assumed): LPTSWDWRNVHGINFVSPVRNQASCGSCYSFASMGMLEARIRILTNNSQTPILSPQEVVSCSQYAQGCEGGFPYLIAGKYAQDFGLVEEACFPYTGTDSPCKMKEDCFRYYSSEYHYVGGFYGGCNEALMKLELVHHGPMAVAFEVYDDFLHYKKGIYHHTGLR
T1 sequence (P53634 395-463 limits assumed): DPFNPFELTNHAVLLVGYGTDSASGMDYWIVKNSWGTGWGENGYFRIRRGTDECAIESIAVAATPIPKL

SMILES | IC50 [1] | IC50 [2] | IC50 [3] | IC50 [4]
CC(=O)Nc1ccc(-c2cnc(Nc3ccc(-c4ccsc4)cn3)nc2Nc2cccc(C(F)(F)F)c2)cc1 | 61.8 nM | 102 nM | 86.5 nM | 
CS(=O)(=O)c1ccc(-c2cnc(Nc3ccc(-c4ccsc4)cn3)nc2Nc2cccc(C(F)(F)F)c2)cc1 | > 5000 nM | > 5000 nM | > 5000 nM | 
FC(F)(F)c1ccc(Nc2nc(Nc3ccc(-c4ccsc4)cn3)ncc2Cl)cc1 | 105 nM | 184 nM | 150 nM | 
CN1CCN(Cc2ccc(-c3cnc(Nc4ccc(-c5ccsc5)cn4)nc3Nc3cccc(C(F)(F)F)c3)cc2)CC1 | > 5000 nM | > 5000 nM | > 5000 nM | 
FC(F)(F)c1cccc(Nc2nc(Nc3ccc(-c4ccsc4)cn3)ncc2-c2cccc(Cl)c2)c1 | > 5000 nM | > 5000 nM | > 5000 nM | 
Fc1ccc(Nc2nc(Nc3ccc(-c4ccsc4)cn3)ncc2Cl)cc1C(F)(F)F | 142 nM | 170 nM | 200 nM | 
FC(F)(F)c1cccc(Nc2nc(Nc3ncc(-c4ccsc4)cn3)ncc2Cl)c1 | > 5000 nM | > 5000 nM | > 5000 nM | 
FC(F)(F)Oc1cccc(Nc2nc(Nc3ccc(-c4ccsc4)cn3)ncc2Cl)c1 | 252 nM | 180 nM | 246 nM | 
CC(=O)Nc1ccc(Nc2nc(Nc3ccc(-c4ccsc4)cn3)ncc2Cl)cc1 | 76.4 nM | 63.9 nM | 99.9 nM | 
Fc1ccc(Nc2nc(Nc3ccc(-c4ccsc4)cn3)ncc2Cl)cc1F | 99.8 nM | 159 nM | 174 nM | 
CC(=O)c1cccc(-c2cnc(Nc3ccc(-c4ccsc4)cn3)nc2Nc2cccc(C(F)(F)F)c2)c1 | 156 nM | 308 nM | 228 nM | 
FC(F)(F)c1cccc(Nc2nc(Nc3cnc(-c4ccsc4)cn3)ncc2Cl)c1 | > 5000 nM | > 5000 nM | > 5000 nM | 
Nc1ccc(Nc2nc(Nc3ccc(-c4ccsc4)cn3)ncc2Cl)cc1 | 57 nM | 111 nM | 89.5 nM | > 5000 nM
FC(F)(F)c1cccc(Nc2nc(Nc3ccc(-c4ccco4)cn3)ncc2Cl)c1 | > 5000 nM | > 5000 nM | > 5000 nM | 
CC(=O)Nc1cccc(-c2cnc(Nc3ccc(-c4ccsc4)cn3)nc2Nc2cccc(C(F)(F)F)c2)c1 | > 5000 nM | > 5000 nM | > 5000 nM | 
FC(F)(F)c1cccc(Nc2nc(Nc3ccc(-c4ccsc4)nc3)ncc2Cl)c1 | 103 nM | 160 nM | 216 nM | 
FC(F)(F)c1cccc(Nc2nc(Nc3ccc(-c4ccsc4)cn3)ncc2-c2ccoc2)c1 | > 5000 nM | > 5000 nM | > 5000 nM | 
FC(F)(F)c1cccc(Nc2nc(Nc3ccc(-c4ccsc4)nn3)ncc2Cl)c1 | 90.6 nM | 89.5 nM | 181 nM | 
NC(=O)c1cccc(-c2cnc(Nc3ccc(-c4ccsc4)cn3)nc2Nc2cccc(C(F)(F)F)c2)c1 | > 5000 nM | > 5000 nM | > 5000 nM | 
Cn1cc(-c2cnc(Nc3ccc(-c4ccsc4)cn3)nc2Nc2cccc(C(F)(F)F)c2)cn1 | 248 nM | > 3000 nM | 416 nM | 

SMILES | IC50 [1] | IC50 [2] | IC50 [3] | IC50 [4]
Nc1cccc(Nc2nc(Nc3ccc(-c4ccsc4)cn3)ncc2Cl)c1 | 132 nM | 156 nM | 127 nM | 
FC(F)(F)c1cccc(Nc2nc(Nc3ccc(-c4ccsc4)cn3)ncc2-c2ccccc2)c1 | > 5000 nM | > 5000 nM | > 5000 nM | 
Nc1ccc(-c2cnc(Nc3ccc(-c4ccsc4)cn3)nc2Nc2cccc(C(F)(F)F)c2)cc1 | > 5000 nM | > 5000 nM | > 5000 nM | 
NC(=O)c1ccc(-c2cnc(Nc3ccc(-c4ccsc4)cn3)nc2Nc2cccc(C(F)(F)F)c2)cc1 | 133 nM | 357 nM | 285 nM | 
FC(F)(F)c1cccc(Nc2nc(Nc3ccc(-c4ccsc4)cn3)ncc2-c2ccc(Cl)cc2)c1 | 216 nM | 288 nM | 356 nM | 
FC(F)(F)c1cccc(Nc2nc(Nc3ccc(-c4ccsc4)cc3)ncc2Cl)c1 | > 5000 nM | > 5000 nM | > 5000 nM | 
FC(F)(F)c1ccc(CNc2nc(Nc3ccc(-c4ccsc4)cn3)ncc2Cl)cc1 | 69.4 nM | 89.8 nM | 92.2 nM | 
FC(F)(F)c1cccc(Nc2nc(Nc3ccc(-c4ccsc4)cn3)ncc2Br)c1 | 98.6 nM | 203 nM | 180 nM | 
CN1CC=C(c2cnc(Nc3ccc(-c4ccsc4)cn3)nc2Nc2cccc(C(F)(F)F)c2)CC1 | > 5000 nM | > 5000 nM | > 5000 nM | 
FC(F)(F)Oc1ccc(Nc2nc(Nc3ccc(-c4ccsc4)cn3)ncc2Cl)cc1 | 92.4 nM | 110 nM | 154 nM | 
Clc1cnc(Nc2ccc(-c3ccsc3)cn2)nc1Nc1ccccn1 | 102 nM | 141 nM | 155 nM | 
FC(F)(F)c1cccc(Nc2nc(Nc3ccc(-c4cccs4)cn3)ncc2Cl)c1 | 128 nM | 129 nM | 396 nM | 
Fc1ccc(Nc2nc(Nc3ccc(-c4ccsc4)cn3)ncc2Cl)cc1 | 128 nM | 105 nM | 134 nM | 
Clc1cnc(Nc2ccc(-c3ccsc3)cn2)nc1NC1CCNCC1 | 91.5 nM | 120 nM | 169 nM | 
O=[N+]([O-])c1cc(-c2ccsc2)cnc1Nc1ncc(Cl)c(Nc2cccc(C(F)(F)F)c2)n1 | 152 nM | 197 nM | 276 nM | 
FC(F)(F)c1cccc(Nc2nc(Nc3cccc(-c4ccsc4)c3)ncc2Cl)c1 | 65.6 nM | 203 nM | 178 nM | > 5000 nM
CN1CCN(c2ccc(-c3cnc(Nc4ccc(-c5ccsc5)cn4)nc3Nc3cccc(C(F)(F)F)c3)cc2)CC1 | > 5000 nM | > 5000 nM | > 5000 nM | 
FC(F)(F)c1cccc(Nc2nc(Nc3ccc(-c4ccsc4)cn3)ncc2-c2ccncc2)c1 | > 5000 nM | > 5000 nM | > 5000 nM | 
FC(F)(F)c1cccc(Nc2nc(Nc3cc(-c4ccsc4)ccn3)ncc2Cl)c1 | 77.9 nM | 260 nM | 155 nM | 
